Source: patent US4965280A, “Antifungal carbinols” (E. I. Du Pont de Nemours and Company, priority 1989, dated 1990)
Converted amounts (≈) assume the structure as drawn. Like-named read-outs stand apart in the source and are kept apart here.

Assays:
[1] = tested on: Fusarium oxysporum f. sp. cucumerinum; experiment: Example L cucumber wilt; type: in vivo; details: 336 h, 5 kg/ha, read-out: disease control rating, Ex. L
Description: […] Seeds and soil were then inoculated with a mixture of sand, cereal and mycelium of the fungus Fusarium oxysporum f. sp. cucumerinum, causal agent of cucumber wilt, and incubated in a growth chamber at 30° C. for 14 days. Disease ratings were then made.

[2] = tested on: Candida albicans ATCC 11651; experiment: In vitro antifungal MIC, microtiter broth dilution; details: for MIC: Candida albicans, ATCC11651, 24 h, read-out: MIC values, C. albicans, 30°, 24 hours
[3] = tested on: Venturia inaequalis; experiment: Example A apple scab; type: in vivo; details: 100 PPM, read-out: disease control rating, Ex. A
In short: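 Spray application to run-off on apple seedlings; compound at 100 or 20 ppm in water with 250 ppm TREM 014 (polyhydric alcohol esters) and 6% acetone of final volume.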

[4] = tested on: Rhizoctonia solani; experiment: Example K cotton blight; type: in vivo; details: 336 h, 5 kg/ha, read-out: disease control rating, Ex. K
Description: […] Seeds and soil were then inoculated with a mixture of sand, cereal and mycelium of the fungus Rhizoctonia solani, causal agent of cotton blight, and incubated in a growth chamber at 30° C. for 14 days. Disease ratings were then made.

[5] = tested on: Pythium aphanadermatum; experiment: Example J cucumber damping off; type: in vivo; details: Pythium, 336 h; 5 kg/ha; read-out: disease control rating, Ex. J
In short: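 This cucumber damping-off test used soil and seeds infested with a sand–cereal preparation carrying mycelium of Pythium aphanadermatum. Incubation took place in a growth chamber held at 30° C. for 14 days. Afterwards, the extent of disease was scored as a disease control rating.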

[6] = tested on: Cercosporidium personatum; experiment: Example B Peanut Late Leafspot; type: in vivo; details: Nothopassalora personata; 100 PPM; read-out: disease control rating, Ex. B
In short: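 Spray suspensions at 100 or 20 ppm, prepared from acetone solutions (acetone 6% of final volume) in water carrying 250 ppm of a polyhydric alcohol ester surfactant, were applied to peanut seedlings until run-off.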

[7] = tested on: Plasmorpara viticola; experiment: Example I grape downy mildew; type: in vivo; details: read-out: disease control rating, Ex. I
In short: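 Applied as a foliar spray to run-off on grape seedlings, the compounds were formulated at 100 or 20 ppm in water containing 250 ppm TREM 014, with acetone making up 6% of the volume.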

[8] = tested on: Sclerotium rolfsii; experiment: Example M southern blight; type: in vivo; details: Agroathelia rolfsii, 336 h; 5 kg/ha; read-out: disease control rating, Ex. M
Description: […] Seeds and soil were then inoculated with a mixture of sand, cereal and mycelium of the fungus Sclerotium rolfsii, causal agent of sourthern blight, and incubated in a growth chamber at 30° C. for 14 days. Disease ratings were then made.

[9] = tested on: Erysiphe graminis f. sp. tritici; experiment: Example D wheat powdery mildew; type: in vivo; details: Blumeria graminis, 144 h; 100 PPM; read-out: disease control rating, Ex. D
In short: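 Seedling wheat was treated by spraying to run-off; formulation used acetone as co-solvent (6% final) and TREM 014 surfactant at 250 ppm, with compound at 100 or 20 ppm.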

[10] = tested on: Rhizoctonia solani; experiment: Example F rice sheath blight; type: in vivo; details: 100 PPM; for pest or weed control at 100 ppm: Rhizoctonia solani, 144 h, read-out: disease control rating, Ex. F
In short: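 Foliar run-off spray, rice seedlings: compound at 100 or 20 ppm in aqueous 250 ppm polyhydric alcohol ester surfactant, acetone 6% v/v final.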

[11] = tested on: Pyricularia oryzae; experiment: whole plant or invertebrate; type: in vivo; details: for pest or weed control at 100 ppm: Pyricularia oryzae, 120 h, read-out: disease control rating, Ex. E, 100 PPM
[12] = tested on: Botrytis cinerea; experiment: Example C bean grey mold; type: in vivo; details: 100 PPM; for pest or weed control at 100 ppm: Botrytis cinerea, 24 h, read-out: disease control rating, Ex. C
In short: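 Spray rates: 100 and 20 ppm. Vehicle: purified water with 6% acetone by final volume plus 250 ppm TREM 014 (polyhydric alcohol esters). Host plants, broad bean seedlings, were wetted until run-off.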

[13] = tested on: Candida albicans ATCC 11651; experiment: In vivo systemic Candida infection in mice, primary assay; parameters: species or system Candida albicans; CF-1 female mice; details: 150 mg/kg per day; for responders at 150 mg/kg: Candida albicans, read-out: % Survival
In short: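 CF-1 female mice (20 g, 10 per group) were infected IV with 0.2 ml of 1×10^7/ml C. albicans ATCC 11651, then given test compound subcutaneously at 50 or 150 mg/kg/day at 1 and 6 h post-infection and once daily for three more days. Survival was followed for 21 days against infected untreated mice; ≥70% protection at 14 days was scored active.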

[14] = tested on: Aspergillus fumigatus ATCC 28214; experiment: In vitro antifungal MIC, microtiter broth dilution; details: for MIC: Aspergillus fumigatus, ATCC28214, 24 h, read-out: MIC values, A. fumigatus, 30°, 24 hours
[15] = tested on: Puccinia recondita; experiment: Example G wheat leaf rust; type: in vivo; details: 100 PPM, read-out: disease control rating, Ex. G
[16] = tested on: Phytophthora infestans; experiment: whole plant or invertebrate; type: in vivo; details: for pest or weed control at 100 ppm: Phytophthora infestans, in Solanum lycopersicum, read-out: disease control rating, Ex. H, 100 PPM

| SMILES | pest or weed control at 5000 g/ha [1] [%] | pest or weed control at 100 ppm [3] [%] | pest or weed control at 5000 g/ha [4] [%] | pest or weed control at 5000 g/ha [5] [%] | pest or weed control at 100 ppm [6] [%] | pest or weed control at 100 ppm [7] [%] | pest or weed control at 5000 g/ha [8] [%] | pest or weed control at 100 ppm [9] [%] | responders at 150 mg/kg ([13]; ATCC11651, 168 h, day 7) [%] | pest or weed control at 100 ppm [15] [%] | MIC [2] [µg/mL] | pest or weed control at 100 ppm [10] [%] | pest or weed control at 100 ppm [11] [%] | pest or weed control at 100 ppm [12] [%] | pest or weed control at 100 ppm [16] [%] | MIC [14] [µg/mL] | other results |
| --- | --- | --- | --- | --- | --- | --- | --- | --- | --- | --- | --- | --- | --- | --- | --- | --- | --- |
| C=C(c1ccc(F)cc1)C(O)(Cn1cncn1)c1ccc(F)cc1 (single isomer, unassigned) [Example 1277] | 0 | 9 | 0 | 0 | 65 | 25 | 0 | 0 | 100 | 39 | – | – | – | – | – | – | MIC values, C. albicans ([2]; 30°, 24 hours): 0.03 µg/mL (≈ 0.0916 µM); disease control rating, Ex. F [10]: 0%; disease control rating, Ex. E ([11]; 100 PPM): 0%; disease control rating, Ex. C [12]: 0%; % Survival ([13]; day 14): 100%; % Survival ([13]; day 21): 90%; MIC values, A. fumigatus ([14]; 30°, 24 hours): 6.3 µg/mL (≈ 19.2 µM); disease control rating, Ex. H ([16]; 100 PPM): 0% |
| C=C(CO)C(O)(Cn1cncn1)c1ccc(-c2ccccc2)cc1 (centres unmarked) [Example 452] | 0 | 36 | 0 | 0 | 0 | 0 | 0 | 46 | – | 30 | > 100 | 67 | 0 | 54 | 0 | – | – |
| C=C(CN(C)C)C(O)(Cn1cncn1)c1ccc(Br)cc1 (centres unmarked) [Example 455] | 0 | 64 | 0 | 0 | 65 | 0 | 0 | 12 | – | 43 | 25 (≈ 71.2 µM) | 0 | 0 | 0 | 0 | – | – |
| C=C(c1ccccc1)C(O)(Cn1cncn1)c1ccccc1F (centres unmarked) [Example 594] | 100 | 86 | 60 | 0 | 100 | 79 | 50 | 77 | 70 | 100 | 0.8 (≈ 2.59 µM) | – | 2 | 93 | 0 | 0.8 (≈ 2.59 µM) | responders at 150 mg/kg ([13]; ATCC11651, 336 h, day 14): 10%; responders at 150 mg/kg ([13]; ATCC11651, 504 h, day 21): 0% |
| C=C(c1ccccc1)C(O)(Cn1cncn1)c1cc(Cl)cc(Cl)c1 (centres unmarked) [Example 603] | 0 | 44 | 0 | 0 | 97 | 0 | 0 | 69 | 10 | 95 | 0.1 (≈ 0.278 µM) | – | 0 | 91 | 0 | > 100 | responders at 150 mg/kg ([13]; ATCC11651, 336 h, day 14): 0%; responders at 150 mg/kg ([13]; ATCC11651, 504 h, day 21): 0% |
| C=C(c1ccccc1)C(O)(Cn1cncn1)c1ccc(F)c(Cl)c1 (centres unmarked) [Example 605] | 0 | 70 | 0 | 0 | 99 | 0 | 0 | 81 | – | 100 | 0.2 (≈ 0.582 µM) | – | 0 | 32 | 0 | 100 (≈ 291 µM) | – |
| C=C(c1cc(Cl)cc(Cl)c1)C(O)(Cn1cncn1)c1ccc(F)cc1F (centres unmarked) [Example 815] | 0 | 40 | 0 | 0 | 98 | 65 | 0 | 62 | – | 97 | 0.03 (≈ 0.0757 µM) | – | 2 | 0 | 0 | > 100 | – |
| C=C(c1ccc(F)cc1)C(O)(Cn1ncnc1S)c1ccccc1F (centres unmarked) [Example 1300] | 0 | 100 | 0 | 0 | 100 | 0 | 0 | 92 | – | 100 | ≤ 0.4 | 81 | 58 | 93 | 0 | 6.3 (≈ 17.5 µM) | – |
| C=C(c1ccc(F)cc1)C(O)(Cn1ncnc1SCC#N)c1ccccc1F (centres unmarked) [Example 1451] | 0 | 86 | 0 | 0 | 84 | 79 | 0 | 77 | – | 93 | > 100 | – | 2 | 48 | 0 | > 100 | – |
| C=C(c1ccccc1)C(O)(Cn1ncnc1SCCCC)c1ccc(F)cc1 (centres unmarked) [Example 1459] | 0 | 72 | 0 | 0 | 70 | 74 | 0 | 31 | – | 65 | > 100 | 0 | 17 | 65 | 0 | > 100 | – |
